In article PMC6017588, “Synthesis and Structure-Activity Relationships of LP1 Derivatives: N-Methyl-N-phenylethylamino Analogues as Novel MOR Agonists” (Molecules : A Journal of Synthetic Chemistry and Natural …, 2018):
Structures can show the parent of a compound that is named as a salt. Where two headings read alike, the source gives them in different places.

Assays:
[1] = molecular target: T1, DOR (Rattus norvegicus, UniProt P33533); assay: DOR competitive radioligand binding ([3H]-DPDPE displacement, rat brain membranes)
T1 construct: from tissue; host or cells: rat brain membranes

[2] = molecular target: T2, MOR (Rattus norvegicus, UniProt P33535); assay: Inhibition of forskolin-stimulated cAMP accumulation in HEK293 cells stably expressing MOR; assay type: cell-based; settings: for Emax: maximal percent inhibition of cAMP accumulation, read-out: Imax (%) ± SD MOR
Protocol: As typical Gi/o coupled receptor, MOR, DOR and KOR signals are mediated by AC inhibition.
(§1) Cell culture. HEK293 cells stably expressing either the EE-tagged MOR or the flag-tagged KOR [20, 21, 22] were grown in Dulbecco’s modified Eagle’s medium (DMEM) supplemented with 10% fetal calf serum, 2 mM glutamine, 100 U/mL penicillin, and 0.1 mg/mL streptomycin under 5% CO2 at 37 °C.
(§2) Measurements of cAMP accumulation. Measurements of AC activity were performed as described by Papakonstantinou et al. or the GloSensor cAMP Assay (Promega) following the Manufacturer’s instructions. The generation of cAMP was assessed in response to treatment of the cells with various concentrations of the appropriate ligand (10 pM–50 μΜ) using 50 μΜ forskolin at 37 °C. Values are means ± SD of triplicate determinations from three independent experiments. Analysis of the data was performed using Origin 7.5 software (OriginLab Corporation, Northampton, MA, USA).

[3] = molecular target: T2, MOR; assay: MOR competitive radioligand binding ([3H]-DAMGO displacement, rat brain membranes); set-up: from tissue; host or cells: rat brain membranes
[4] = molecular target: T3, KOR (Cavia porcellus, UniProt P41144); assay: KOR competitive radioligand binding ([3H]-(+)-U69,593 displacement, guinea pig brain membranes)
T3 construct: from tissue; host or cells: guinea pig brain membranes

[5] = molecular target: T4, KOR (Homo sapiens, UniProt P41145); assay: Inhibition of forskolin-stimulated cAMP accumulation in HEK293 cells stably expressing KOR; assay type: cell-based; settings: for Imax (%) ± SD KOR: maximal percent inhibition of cAMP accumulation; for Imax (%) ± SD KOR / cAMP inhibition: HEK293-KOR; for cAMP inhibition: only at very high concentrations, not dose-dependent
T4 construct: FLAG; expressed in transfected cells
Protocol: As typical Gi/o coupled receptor, MOR, DOR and KOR signals are mediated by AC inhibition. Given the significant MOR and moderate KOR affinity, to examine the functional role of target compounds, in opioid receptor signaling, the ability of 5a–d and 6a–d to affect forskolin-stimulated AC activity in HEK293 cells stably expressing the MOR or KOR was tested and the results are reported in Table 2.
as §1, §2

[6] = tested on: acute thermal nociception; assay: Radiant heat tail flick test in mice; assay type: in vivo, mouse
Protocol: The MOR agonist 5c was evaluated for acute agonistic effects in mice. In detail, it was tested for its ability to produce antinociception in the mouse tail flick test at the dose-range of 1–7 mg/kg intraperitoneal (ip) injected. The compound produced a dose-dependent analgesic effect compared to the group of mice treated with saline (* p < 0.05 vs. saline-treated mice).
Animals. Male Swiss […] mice (Envigo Laboratories, S. Pietro al Natisone (UD), Italy) weighing 25–30 g were housed six to a cage. Animals were kept at a constant room temperature (25 ± 1 °C) under a 12:12 h light and dark cycle with free access to food and water. Each mouse was used for only one experiment.
Nociceptive Test. Nociception was evaluated by the radiant heat tail-flick test. Briefly, it consisted of irradiation of the lower third of the tail with an infrared source (Ugo Basile, Comerio, Italy). The day before the experiment, mice were habituated to the procedure for measuring nociception threshold. Experiments were performed at room temperature (25 ± 1 °C). The basal pre-drug latency was established between 3 and 5 s and was calculated as the average of the first three measurements, which were performed at 5 min intervals. A cut-off latency of 15 s was established to minimize damage to the tail. All tested compounds were dissolved in pyrogen-free isotonic saline (Baxter Healthcare, Deerfield, IL, USA) and DMSO (5%) and were administered to mice ip. Post-treatment tail flick latencies (TFLs) were determined at 30, 45, 60, 75 and 90 min after ip injection.
Statistical Analysis. All values were presented as means ± SD. Intergroup comparisons were assessed using an initial two-way analysis of variance (ANOVA) followed by Duncan’s multiple range post-hoc test. Differences were considered significant when * p < 0.05. Effective dose-50 (ED50) values were calculated using least-squares linear regression analysis followed by calculation of 95% confidence limits (95% CL) by the method of Bliss.

[7] = tested on: DOR; set-up: method as in PMID 20599386; settings: earlier work; read-out: IC50 DOR (intrinsic activity); cited from earlier work
[8] = set-up: method as in PMID 22100511, PMID 22580287; settings: in vivo tested; cited from earlier work

Compound | melting point | Ki [1] | Emax [2] | Ki [3] | Ki [4] | other results
C[C@H]1[C@H]2Cc3ccc(O)cc3[C@]1(C)CCN2CCNc1ccccc1 (as salt: oxalate) [5a, (2R,6R,11R)-3-(2-Anilinoethyl)-6,11-dimethyl-1,2,3,4,5,6-hexahydro-2,6-methano-3-benzazocin-8-ol] | 145 to 146 °C | – | – | – | – | –
C[C@H]1[C@H]2Cc3ccc(O)cc3[C@]1(C)CCN2CCNC1CCCCC1 (as salt: oxalate) [5b, (2R,6R,11R)-3-[2-(Cyclohexylamino)ethyl)-6,11-dimethyl-1,2,3,4,5,6-hexahydro-2,6-methano-3-benzazocin-8-ol] | 153 to 155 °C | – | – | – | – | –
CCN(CCN1CC[C@@]2(C)c3cc(O)ccc3C[C@@H]1[C@@H]2C)c1ccccc1 (as salt: oxalate) [5d, (2R,6R,11R)-6,11-Dimethyl-{2-[ethyl(phenyl)amino]ethyl}-1,2,3,4,5,6-hexahydro-2,6-methano-3-benzazocin-8-ol] | 158 to 160 °C | – | – | – | – | –
C[C@H]1[C@H]2Cc3ccc(O)cc3[C@]1(C)CCN2CCCNc1ccccc1 (as salt: oxalate) [6a, (2R,6R,11R)-3-(3-Anilinopropyl)-6,11-dimethyl-1,2,3,4,5,6-hexahydro-2,6-methano-3-benzazocin-8-ol] | 149 to 150 °C | – | – | – | – | –
C[C@H]1[C@H]2Cc3ccc(O)cc3[C@]1(C)CCN2CCCNC1CCCCC1 (as salt: oxalate) [6b, (2R,6R,11R)-3-[3-(Cyclohexylamino)propyl)-6,11-dimethyl-1,2,3,4,5,6-hexahydro-2,6-methano-3-benzazocin-8-ol] | 136 to 138 °C | – | – | – | – | –
C[C@H]1[C@H]2Cc3ccc(O)cc3[C@]1(C)CCN2CCCN(C)c1ccccc1 (as salt: oxalate) [6c, (2R,6R,11R)-6,11-Dimethyl-{3-[methyl(phenyl)amino]propyl}-1,2,3,4,5,6-hexahydro-2,6-methano-3-benzazocin-8-ol] | 140 to 142 °C | – | – | – | – | –
CCN(CCCN1CC[C@@]2(C)c3cc(O)ccc3C[C@@H]1[C@@H]2C)c1ccccc1 (as salt: oxalate) [6d, (2R,6R,11R)-6,11-Dimethyl-{3-[ethyl(phenyl)amino]propyl}-1,2,3,4,5,6-hexahydro-2,6-methano-3-benzazocin-8-ol] | 138 to 139 °C | – | – | – | – | –
C[C@H]1[C@H]2Cc3ccc(O)cc3[C@]1(C)CCN2CCNc1ccccc1 [5a, (2R,6R,11R)-3-(2-Anilinoethyl)-6,11-dimethyl-1,2,3,4,5,6-hexahydro-2,6-methano-3-benzazocin-8-ol] | – | 270 ± 10 nM | 60 ± 4% | 83 ± 30 nM | 100 ± 5 nM | IC50 [5]: 1000 ± 65 nM
C[C@H]1[C@H]2Cc3ccc(O)cc3[C@]1(C)CCN2CCNC1CCCCC1 [5b, (2R,6R,11R)-3-[2-(Cyclohexylamino)ethyl)-6,11-dimethyl-1,2,3,4,5,6-hexahydro-2,6-methano-3-benzazocin-8-ol] | – | 70 ± 2 nM | 28 ± 1% | 8.3 ± 0.8 nM | 19.8 ± 0.9 nM | IC50 [5]: 180 ± 50 nM; Imax (%) ± SD KOR [5]: 58 ± 4%
C[C@H]1[C@H]2Cc3ccc(O)cc3[C@]1(C)CCN2CCN(C)c1ccccc1 [5c, (2R,6R,11R)-6,11-Dimethyl-{2-[methyl(phenyl)amino]ethyl}-1,2,3,4,5,6-hexahydro-2,6-methano-3-benzazocin-8-ol] | – | 147 ± 5.7 nM | 72% | 6.1 ± 0.5 nM | 31 ± 1.3 nM | Functional profile at MOR ([2]; cAMP accumulation): MOR agonist; ED50 ([6]; 0.75 h, mouse tail flick, ip, 45 min post-treatment, read-out: ED50 (95% CL)): 4.33 mg/kg; Time of maximal antinociceptive activity ([6]; after ip injection, mouse tail flick): 45 min; Duration of significant antinociceptive activity ([6]; highest dose (7 mg/kg ip), after injection): 75 min; Effect of naloxone pretreatment on antinociception ([6]; naloxone 3 mg/kg sc, 30 min prior to 5c, data not shown): prevented its antinociceptive effect; cAMP inhibition [5]: 30%
CCN(CCN1CC[C@@]2(C)c3cc(O)ccc3C[C@@H]1[C@@H]2C)c1ccccc1 [5d, (2R,6R,11R)-6,11-Dimethyl-{2-[ethyl(phenyl)amino]ethyl}-1,2,3,4,5,6-hexahydro-2,6-methano-3-benzazocin-8-ol] | – | 411 ± 14 nM | 55 ± 3% | 160 ± 7 nM | 28.7 ± 1 nM | cAMP inhibition [5]: 30%
C[C@H]1[C@H]2Cc3ccc(O)cc3[C@]1(C)CCN2CCCNc1ccccc1 [6a, (2R,6R,11R)-3-(3-Anilinopropyl)-6,11-dimethyl-1,2,3,4,5,6-hexahydro-2,6-methano-3-benzazocin-8-ol] | – | 117 ± 5.2 nM | 50 ± 3% | 7 ± 0.6 nM | 71 ± 2 nM | IC50 [5]: 1400 ± 69 nM; Imax (%) ± SD KOR [5]: 53 ± 4%
C[C@H]1[C@H]2Cc3ccc(O)cc3[C@]1(C)CCN2CCCNC1CCCCC1 [6b, (2R,6R,11R)-3-[3-(Cyclohexylamino)propyl)-6,11-dimethyl-1,2,3,4,5,6-hexahydro-2,6-methano-3-benzazocin-8-ol] | – | > 5000 nM | – | 48 ± 1.4 nM | 126 ± 4.5 nM | IC50 [5]: > 5000 nM; Imax (%) ± SD KOR [5]: 44 ± 3%
C[C@H]1[C@H]2Cc3ccc(O)cc3[C@]1(C)CCN2CCCN(C)c1ccccc1 [6c, (2R,6R,11R)-6,11-Dimethyl-{3-[methyl(phenyl)amino]propyl}-1,2,3,4,5,6-hexahydro-2,6-methano-3-benzazocin-8-ol] | – | > 5000 nM | 50 ± 3% | 68 ± 1.6 nM | 94 ± 3.5 nM | cAMP inhibition [5]: 30%
CCN(CCCN1CC[C@@]2(C)c3cc(O)ccc3C[C@@H]1[C@@H]2C)c1ccccc1 [6d, (2R,6R,11R)-6,11-Dimethyl-{3-[ethyl(phenyl)amino]propyl}-1,2,3,4,5,6-hexahydro-2,6-methano-3-benzazocin-8-ol] | – | 1060 ± 152 nM | 40 ± 2% | 86 ± 3 nM | 56 ± 1.7 nM | cAMP inhibition [5]: 30%
C[C@@H](NC(=O)[C@@H](N)Cc1ccc(O)cc1)C(=O)NCC(=O)N(C)[C@@H](Cc1ccccc1)C(=O)NCCO [DAMGO, reference compound] | – | – | 73 ± 0.3% | – | – | –
C[C@H]1[C@H]2Cc3ccc(O)cc3[C@]1(C)CCN2CCC(=O)Nc1ccccc1 [LP1, reference compound] | – | – | 73 ± 3.8% | – | – | Ki ([1]; [3H]DPDPE displacement, rat brain membranes, read-out: Ki (nM) ± SEM DOR): 29.1 ± 1 nM; IC50 [7]: 12 nM; Ki ([3]; [3H]DAMGO displacement, rat brain membranes, read-out: Ki (nM) ± SEM MOR): 0.83 ± 0.05 nM; Ki ([4]; [3H]U69,593 displacement, guinea pig brain membranes, read-out: Ki (nM) ± SEM KOR): 110 ± 6 nM; ED50 (analgesia) [8]: 2.03 mg/kg
Oc1ccc2c3c1O[C@H]1c4[nH]c5ccccc5c4C[C@@]4(O)[C@@H](C2)N(CC2CC2)CC[C@]314 [Naltrindole, reference compound] | – | 1.13 ± 0.1 nM | – | – | – | –
